SMILES strings stand for the structures. Where two headings read alike, the source gives them in different places.

The test system of this experiment is MDA-MB-231 human breast cancer cells. The experiment is described as follows: Cell proliferation assay (CellTiter-Glo, 72 hours treatment). It counts as cell-based. The conditions noted are these: MDA-MB-231 cells, 72 hours at 37° C., CellTiter-Glo, read-out: MDA-MB-231 cell proliferation assay (IC50). In short, it runs like this:
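MDA-MB-231 cells seeded at 2,500 cells/well, treated next day with compound or DMSO vehicle for 72 h at 37 °C. Proliferation read by CellTiter-Glo; IC50 from sigmoidal non-linear regression, binned as +++ (<100 nM), ++ (100–1000 nM), + (>1000 nM).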
(In general: ATP-based viability assays read luminescence as a measure of living cells.)

As for `CNS(=O)(=O)[C@H]1[C@@H](O)[C@@]2(O)c3ncc(Cl)cc3O[C@@]2(c2ccc(C#N)cc2)[C@@H]1c1ccccc1` (racemic) [125F, rac-(5aR,6S,7R,8S,8aS)-3-chloro-5a-(4-cyanophenyl)-8,8a-dihydroxy-N-methyl-6-phenyl-5a,7,8,8a-tetrahydro-6H-cyclopenta[4,5]furo[3,2-b]pyridine-7-sulfonamide], the IC50 (Homo sapiens) is above 1 µM. Same read-out and setting: with `COc1cncc2c1[C@]1(O)[C@H](O)[C@H](C(=O)NCc3ccnn3C)[C@@H](c3ccccc3)[C@]1(c1ccc(Br)cc1)O2` (racemic) [241F, rac-(4bS,5R,6R,7S,7aR)-7a-(4-bromophenyl)-4b,5-dihydroxy-4-methoxy-N-((1-methyl-1H-pyrazol-5-yl)methyl)-7-phenyl-4b,6,7,7a-tetrahydro-5H-cyclopenta[4,5]furo[2,3-c]pyridine-6-carboxamide] the figure was below 0.1 µM; with `CN(C)C(=O)[C@H]1[C@@H](O)[C@@]2(O)c3ncc(Cl)cc3O[C@@]2(c2ccc(C#N)cc2)[C@@H]1c1ccccc1` (single isomer, unassigned) [3F], below 0.1 µM; with `O[C@@H]1C2(CC2)[C@@H](c2ccccc2)[C@]2(c3ccc(Br)cc3)Oc3cc(Cl)cnc3[C@]12O` (racemic) [92F, Rac-(5aR,6R,8R,8aS)-5a-(4-bromophenyl)-3-chloro-6-phenyl-5a,6-dihydrospiro[cyclopenta[4,5]furo[3,2-b]pyridine-7,1′-cyclopropane]-8,8a(8H)-diol], above 1 µM. Still for that read-out and setting: with `COc1cncc2c1[C@]1(O)[C@H](O)[C@H](C(=O)N3CCC(F)(F)CC3)[C@@H](c3ccccc3)[C@]1(c1ccc(Br)cc1)O2` (racemic) [135F, Rac-((4bS,5R,6R,7S,7aR)-7a-(4-bromophenyl)-4b,5-dihydroxy-4-methoxy-7-phenyl-4b,6,7,7a-tetrahydro-5H-cyclopenta[4,5]furo[2,3-c]pyridin-6-yl)(4,4-difluoropiperidin-1-yl)methanone] the figure was below 0.1 µM. On the same count and under the same terms, with `COc1nc(C#N)cc2c1[C@]1(O)[C@H](O)[C@H](CN3CCC3)[C@@H](c3ccccc3)[C@]1(c1ccc(C#N)cc1)O2` (single isomer, unassigned) [212F] the figure was below 0.1 µM; with `COc1nc(Cl)cc2c1[C@]1(O)[C@H](O)[C@H](C(=O)N3CC(C(F)F)C3)[C@@H](c3ccccc3)[C@]1(c1ccc(Br)cc1)O2` (racemic) [215F, Rac-((5aR,6S,7R,8R,8aS)-5a-(4-bromophenyl)-3-chloro-8,8a-dihydroxy-1-methoxy-6-phenyl-5a,7,8,8a-tetrahydro-6H-cyclopenta[4,5]furo[3,2-c]pyridin-7-yl)(3-(difluoromethyl)azetidin-1-yl)methanone], below 0.1 µM. Turning to `CN(C)C(=O)[C@H]1[C@@H](O)[C@@]2(O)c3ncc(Cl)cc3O[C@@]2(c2ccc(C(F)(F)F)cc2)[C@@H]1c1ccccc1` (single isomer, unassigned) [8F], the IC50 (Homo sapiens) fell in the range of 0.1 to 1 µM. Turning to `COc1cncc2c1[C@]1(O)[C@H](O)[C@H](CNC(C)(C)C)[C@@H](c3ccccc3)[C@]1(c1ccc(C#N)cc1)O2` (single isomer, unassigned) [290F], the IC50 (Homo sapiens) was 0.1 to 1 µM. Still for that read-out and setting: in the case of `O=C1C[C@@H](c2ccccc2)[C@]2(c3ccc(Br)cc3)Oc3cc(Cl)cnc3[C@]12O` (racemic) [129F, Rac-(5aR,6S,8aR)-5a-(4-bromophenyl)-3-chloro-8a-hydroxy-6-phenyl-5a,6,7,8a-tetrahydro-8H-cyclopenta[4,5]furo[3,2-b]pyridin-8-one] it was above 1 µM; in that of `CN(C)C(=O)[C@H]1C(=O)[C@@]2(O)c3ncc(Cl)cc3O[C@@]2(c2ccc(C#N)cc2)[C@@H]1c1ccccc1` (racemic) [32F, Rac-(5aR,6S,7R,8aR)-3-chloro-5a-(4-cyanophenyl)-8a-hydroxy-N,N-dimethyl-8-oxo-6-phenyl-5a,7,8,8a-tetrahydro-6H-cyclopenta[4,5]furo[3,2-b]pyridine-7-carboxamide], above 1 µM; in that of `CC#CC1(O)C(C(=O)N(C)C)[C@@H](c2ccccc2)[C@]2(c3ccc(Br)cc3)Oc3cc(Cl)cnc3[C@]12O` (mixture of isomers) [191F, Rac-(5aR,6S,8aS)-5a-(4-bromophenyl)-3-chloro-8,8a-dihydroxy-N,N-dimethyl-6-phenyl-8-(prop-1-yn-1-yl)-5a,7,8,8a-tetrahydro-6H-cyclopenta[4,5]furo[3,2-b]pyridine-7-carboxamide], 0.1 to 1 µM. Take `COc1cncc2c1[C@]1(O)[C@H](O)[C@H](C(=O)NC3COC3)[C@@H](c3ccccc3)[C@]1(c1ccc(Br)cc1)O2` (racemic) [239F, Rac-(4bS,5R,6R,7S,7aR)-7a-(4-bromophenyl)-4b,5-dihydroxy-4-methoxy-N-(oxetan-3-yl)-7-phenyl-4b,6,7,7a-tetrahydro-5H-cyclopenta[4,5]furo[2,3-c]pyridine-6-carboxamide]: the IC50 (Homo sapiens) is below 0.1 µM.

As for `Clc1cnc2c(c1)O[C@@]1(c3ccc(Br)cc3)[C@H](c3ccccc3)C[C@@H]3O[C@@]231` (racemic) [63F, Rac-(1aS,3S,3aR,8bS)-3a-(4-bromophenyl)-6-chloro-3-phenyl-1a,2,3,3a-tetrahydro-oxireno[2″,3″:1′,5′]cyclopenta[1′,2′:4,5]furo[3,2-b]pyridine], for the setting “Homo sapiens”, the IC50 is above 1 µM. In the case of `CN(C)C[C@H]1[C@@H](O)[C@@]2(O)c3ncc(C#N)cc3O[C@@]2(c2ccc(C#N)cc2)[C@@H]1c1ccccc1` [105F], the IC50 is above 1 µM. Regarding `N#Cc1ccc([C@@]23Oc4cc(Cl)cnc4[C@]2(O)[C@H](CO)C[C@H]3c2ccccc2)cc1` (racemic) [168F, Rac-4-((5aR,6S,8S,8aR)-3-chloro-8a-hydroxy-8-(hydroxymethyl)-6-phenyl-6,7,8,8a-tetrahydro-5aH-cyclopenta[4,5]furo[3,2-b]pyridin-5a-yl)benzonitrile], for the setting “Homo sapiens”, the IC50 was above 1 µM. On to `COc1nc(Cl)cc2c1[C@]1(O)[C@H](O)[C@H](CN(C)C)[C@@H](c3ccccc3)[C@]1(c1ccc(C(F)(F)F)cc1)O2` (racemic) [144F, Rac-(5aR,6S,7S,8R,8aS)-3-chloro-7-((dimethylamino)methyl)-1-methoxy-6-phenyl-5a-(4-(trifluoromethyl)phenyl)-5a,6,7,8-tetrahydro-8aH-cyclopenta[4,5]furo[3,2-c]pyridine-8,8a-diol], for which, where the note is “Homo sapiens”, the IC50 is below 0.1 µM. The same measure, in the same setting: with `COc1cncc2c1[C@]1(O)[C@H](O)[C@H](CN(C)CC(C)(C)O)[C@@H](c3ccccc3)[C@]1(c1ccc(C#N)cc1)O2` (single isomer, unassigned) [252F] the figure was below 0.1 µM. Regarding `COc1cncc2c1[C@]1(O)[C@H](O)[C@H](C(=O)N3CCN(C)CC3)[C@@H](c3ccccc3)[C@]1(c1ccc(C(F)(F)F)cc1)O2` (racemic) [283F, rac-((4bS,5R,6R,7S,7aR)-4b,5-dihydroxy-4-methoxy-7-phenyl-7a-(4-(trifluoromethyl)phenyl)-4b,6,7,7a-tetrahydro-5H-cyclopenta[4,5]furo[2,3-c]pyridin-6-yl)(4-methylpiperazin-1-yl)methanone], the IC50 (Homo sapiens) was in the range of 0.1 to 1 µM. On to `COc1cncc2c1[C@]1(O)[C@H](O)[C@H](CN(C)C(C)(C)C)[C@@H](c3ccccc3)[C@]1(c1ccc(C#N)cc1)O2` (single isomer, unassigned) [243F], for which the IC50 (Homo sapiens) fell in the range of 0.1 to 1 µM. Regarding `CCN(CC)C[C@H]1[C@@H](O)[C@@]2(O)c3c(OC)cncc3O[C@@]2(c2ccc(C#N)cc2)[C@@H]1c1ccccc1` (single isomer, unassigned) [73F], the IC50 (Homo sapiens) is below 0.1 µM. Still for that read-out and setting: with `COc1nc(Cl)cc2c1[C@]1(O)[C@H](O)[C@H](CN(C)CC(F)F)[C@@H](c3ccccc3)[C@]1(c1ccc(C#N)cc1)O2` (racemic) [208Fb, Rac-4-((5aR,6S,7S,8R,8aS)-3-chloro-7-(((2,2-difluoroethyl)(methyl)amino)methyl)-8,8a-dihydroxy-1-methoxy-6-phenyl-6,7,8,8a-tetrahydro-5aH-cyclopenta[4,5]furo[3,2-c]pyridin-5a-yl)benzonitrile] the figure was 0.1 to 1 µM; with `COc1nc(Cl)cc2c1[C@]1(O)[C@H](O)[C@H](CN3CC(F)(F)C3)[C@@H](c3ccccc3)[C@]1(c1ccc(C#N)cc1)O2` (racemic) [207Fb, Rac-4-((5aR,6S,7S,8R,8aS)-3-chloro-7-((3,3-difluoroazetidin-1-yl)methyl)-8,8a-dihydroxy-1-methoxy-6-phenyl-6,7,8,8a-tetrahydro-5aH-cyclopenta[4,5]furo[3,2-c]pyridin-5a-yl)benzonitrile], 0.1 to 1 µM.

`COc1nc(C#N)cc2c1[C@]1(O)[C@H](O)[C@H](CN(C)C)[C@@H](c3ccccc3)[C@]1(c1ccc(Cl)cc1)O2` (single isomer, unassigned) [145F]: the IC50 (Homo sapiens) was below 0.1 µM. In the case of `COc1cncc2c1[C@]1(O)[C@H](O)[C@H](CN3CCCC3)[C@@H](c3ccccc3)[C@]1(c1ccc(C#N)cc1)O2` (racemic) [72F, rac-4-((4bS,5R,6S,7S,7aR)-4b,5-dihydroxy-4-methoxy-7-phenyl-6-(pyrrolidin-1-ylmethyl)-4b,5,6,7-tetrahydro-7aH-cyclopenta[4,5]furo[2,3-c]pyridin-7a-yl)benzonitrile], the IC50 (Homo sapiens) was 0.1 to 1 µM.

`COC(=O)C1(F)[C@@H](O)[C@@]2(O)c3ncc(Cl)cc3O[C@@]2(c2ccc(C#N)cc2)[C@@H]1c1ccccc1` (mixture of isomers) [59F, Rac-methyl (5aR,6S,8S,8aS)-3-chloro-5a-(4-cyanophenyl)-7-fluoro-8,8a-dihydroxy-6-phenyl-5a,7,8,8a-tetrahydro-6H-cyclopenta[4,5]furo[3,2-b]pyridine-7-carboxylate]: under “Homo sapiens”, the IC50 was above 1 µM. The same measure, in the same setting: in the case of `COc1cncc2c1[C@]1(O)C(CN3CCOCC3)C[C@@H](c3ccccc3)[C@]1(c1ccc(C(F)(F)F)cc1)O2` (mixture of isomers) [289F, Rac-(4bR,7S,7aR)-4-methoxy-5-(morpholinomethyl)-7-phenyl-7a-(4-(trifluoromethyl)phenyl)-5,6,7,7a-tetrahydro-4bH-cyclopenta[4,5]furo[2,3-c]pyridin-4b-ol] it was 0.1 to 1 µM.

Source of the values: US10577378B2, “EIF4A-inhibiting compounds and methods related thereto” (eFFECTOR Therapeutics, Inc., priority 2015, dated 2020).
